Assay results reported in a melting point compilation (Tetko et al.; mined from patent text by program, amines drawn as free bases though some values may be those of a salt).

| melting point [°C] | SMILES |
| --- | --- |
| 98 to 99 | CC(C(=O)NC(C)(C#N)C(C)C)c1ccc(Br)cc1 (configuration not stated) |
| 148 | COc1cc(C)c(NCCO)cc1N |
| 152 | CCC1=NNC(C)=C(C(=O)OCc2ccco2)C1c1cccc([N+](=O)[O-])c1 (configuration not stated) |
| 77 to 79 | CCCOc1cc(NC(=O)NC(C)C)ccn1 |
| 145 | CC(C)N(CCOc1ccccc1NC(=O)c1cccc2[nH]ccc12)C(C)C |
| 142 to 144 | CCCOc1cc(C(=O)O)cc([N+](=O)[O-])c1-c1ccccc1 |
| 189 to 190 | CC(CNC(=O)c1cccc(Oc2ccccc2)c1)N(O)C(N)=O (configuration not stated) |
| 115 to 116 | CC(=O)N1CCc2cc(Cl)ccc21 |
| 89 to 90 | COCCOc1ccc(N)c([N+](=O)[O-])c1 |
| 220 to 221 | CCOc1cc2cc(CO)cc(-c3ccnc(-n4nc(C)c5ccccc5c4=O)c3)c2cc1OCC |
| 102 to 103 | CCOC(=O)c1cc(C)n(-c2cccnc2)c1-c1ccccc1 |
| 139 | CCOC(=O)C1=C(C)N=C(N)C(C)(C(=O)OCC)C1c1ccccc1 (configuration not stated) |
| 46 to 50 | COC(=O)COc1ccc(C(=O)C(C)(C)Br)cc1 |
| 168 to 170 | CCCCCOc1cc(C(=O)O)cc(N)c1C(=O)c1ccccc1 |
| 67 to 69 | COC(=O)c1nc(N)ccc1Oc1nc(OC)cc(OC)n1 |
| 109 to 111 | CCCN1CCN(c2nc(C)c(C(=O)NCc3cccnc3)s2)C1=O |

| melting point [°C] | SMILES |
| --- | --- |
| 154 to 155 | COC(=O)C[C@H](O)C[C@H](O)C=Cc1c(-c2ccc(F)cc2)c(-c2ccccc2)c(C(=O)Nc2ccccc2)n1C(C)C |
| 155 to 157 | COC(=O)COc1ccc(C(=O)CN2CCN(c3ccnc(C)c3)CC2)cc1 |
| 107 to 109 | CC(C)C[C@H](NC(=O)c1ccc2c(c1)Nc1ccccc1S2)C(=O)N[C@H]1CCOC1OC(=O)C(C)(C)C (some centres not stated) |
| 89 to 91 | COc1ccc2cc(Br)cc(C)c2n1 |
| 112 to 113 | O=C(NCCCSc1ccncc1)c1cccs1 |
| 126 | CCOC(C)=CC(=O)Nc1ccc(Cl)c(Cl)c1 |
| 120 to 122 | O=C(NCCCl)Nc1ccncc1 |
| 65 to 68 | CCC(C)Oc1ccc(OCCNC(=O)C2CC2)cc1 (configuration not stated) |
| 171 to 173 | CC(C)(C)c1cc(NC(=O)Nc2cccc(Cl)c2Cl)c(-c2ccccc2)s1 |
| 123 to 125 | CCCOC1=C(c2ccccc2)C(CCC(=O)O)OC1=O (configuration not stated) |
| 97 to 99 | CCOc1ccc(CC(CO)NC(=O)c2ccnc(Br)c2)cc1OCC (configuration not stated) |
| 162 to 163 | COC(=O)c1sc(N)cc1NC(C)=O |
| 74 to 75 | COc1cc(NC(C)=O)c(Cl)cc1C(=O)CCCCN1CCCCC1 |
| 69 to 73 | Cc1cc(NC(=O)c2cccc(CSc3cnccn3)c2)ccc1C(C)C |
| 121 to 122 | COc1ccc([N+](=O)[O-])cc1CO |
| 189 to 191 | O=C(CC1CCCCC1)Nc1ccc2oc3c(c2c1)CCCC3 |

Further lines, the molecule ahead of its results:

| SMILES | melting point [°C] |
| --- | --- |
| CCOC(=O)C1CN(Cc2ccccc2)C(=O)C(=C2SC=CS2)C1=O (configuration not stated) | 127 to 129 |
| Nc1cc(=O)nc(Nc2ccccc2)n1-c1ccccc1 | 202 to 206 |
| O=C(NCC1(c2nc(C3CC3)cs2)CC1)c1ccccc1C(F)(F)F | 83.4 to 84.2 |
| CN(c1cccc2cc(C3=NCC4(CCC5(CC4)OCCO5)S3)[nH]c12)S(=O)(=O)c1cccs1 | 224 to 225 |
| O=c1nc(-c2ccc([N+](=O)[O-])cc2)oc2ccccc12 | 249 to 251 |
| CSc1c(C)[nH]c2ccc([N+](=O)[O-])cc12 | 198 |
| CCCCCC=C1SC(=S)N(CC(=O)O)C1=O | 136 to 140 |
| N#Cc1nn(-c2c(Cl)cc(C(F)(F)F)cc2Cl)c(NCc2ccccn2)c1SC(F)F | 117 to 120 |
| COc1ccc(-c2ccc(C(=O)Nc3cc4ncc(CN5CCCCCC5)cc4cc3C)cc2)cc1 | 161 |
| Cc1cc2cc(CN3CCCC3)cnc2cc1NC(=O)c1ccc(-c2ccc(F)cc2F)cc1 | 158 to 160 |
| CSc1noc(-c2ccc(OCCOc3ccc([N+](=O)[O-])cc3)cc2)c1C#N | 170 to 171 |
| COc1ccc2[nH]c(SCc3ncc(F)c(N4CCOCC4)c3C)nc2c1 | 84 to 86 |
| Cc1ccc(S(=O)(=O)NCc2ccc(CCN3CCN(c4ccncc4)CC3)cc2)cc1 | 180 to 182 |
| CS(=O)(=O)c1ccc(Cn2c3c(c4cc(F)cc(F)c42)CCCC(CC(=O)O)C3)cc1 (configuration not stated) | 200 to 202 |
| CCc1cc2c(cc1CC)C(=O)CCC2 | 93 |
| Cc1ccc(Cn2cc(C(=O)C(=O)O)c3cc(-c4ccc(OC(F)(F)F)cc4)ccc32)cc1 | 192 to 193 |
| CCC(=O)OCOC(=O)C1=C(C)N(COC)C(C)=C(C(=O)O)[C@@H]1c1cccc([N+](=O)[O-])c1 | 54 to 56 |
| CS(=O)(=O)c1ccc(-c2ccccc2N2CCCCC2)cc1 | 140 |
| O=c1c2ccccc2[nH]n1Cc1cccc2ccccc12 | 198 to 200 |
| CC(C(=O)c1ccc2c(c1)CC(=O)N2)N1CCC(O)(Cc2ccccc2)CC1 (configuration not stated) | 188 to 192 |
| O=C1CCC(c2ccccc2)(c2ccccc2)[C@@H]2CN(C(=O)Cc3ccccc3N3CCCC3)C[C@H]12 (racemic) | 178 |
| C=Cc1ccc(NS(C)(=O)=O)cc1 | 97 |
| COc1ccc(CCNC(=O)C23CC4CC(CC(C4)C2)C3)cc1OC | 132 to 133 |
| O=[N+]([O-])c1ccc(CS(=O)(=O)CCO)c(CS(=O)(=O)CCO)c1 | 126 to 128 |

| SMILES | melting point [°C] |
| --- | --- |
| Cc1cc(C)c2ncc(NC(=O)C3(C)CCc4c(C)c(O)c(C)c(C)c4O3)c(-c3ccccc3Cl)c2c1 (configuration not stated) | 222 to 224 |
| O=C1Nc2cccc(-c3ccoc3)c2C12COc1cc3c(cc12)OCO3 (configuration not stated) | 230 to 231 |
| O=S1(=O)c2ccccc2NC(CO)c2cccn21 (configuration not stated) | 135 to 136 |
| NS(=O)(=O)c1cc2c(c(C(=O)N3CCN(c4ncccn4)CC3)c1)OCCO2 | 239 |
| O=c1[nH]c2ccccc2c(=O)n1CCCCCn1ccnc1 | 160 to 162 |
| COc1ccc(-c2coc(C(N)=O)cc2=O)cc1 | 262 to 263 |
| O=C1c2c(F)cc(F)c(F)c2C(=O)N1c1ccccc1 | 183 to 185 |
| C[C@@H]1Cc2cc(N3C[C@H](CN)OC3=O)ccc2N1C(=O)OCc1ccccc1 | 120 to 122 |
| Cc1ccc(S(=O)(=O)Oc2ccc(C=O)cc2)cc1 | 70 to 72 |
| Cc1c(NC(=O)c2ccc(OC[C@@H]3CCCO3)cc2)ccc2[nH]c(CNCC3CCOCC3)cc12 | 166 to 167 |
| COC(=O)c1ccc(-c2nc(-c3ccccc3C(F)(F)F)cs2)cc1 | 122 to 123 |
| c1ccc(CN2CCN(CC3CCc4ccccc4O3)CC2)cc1 (configuration not stated) | > 230 |
| CC(C)Oc1cc(-n2nc(C(F)(F)F)n(C)c2=O)c(Cl)cc1Cl | 96 to 98 |
| CCP(=O)(OC)C(O)[C@H](CC1CCCCC1)NC(=O)[C@H](CC(C)C)NC(=O)[C@H](Cc1ccccc1)NC(=O)C1CCCC1 (some centres not stated) | 155 to 165 |
| COc1ccc(C2CCN(C(=O)Nc3ccc4cc(CN5CCCC5)cnc4c3)CC2)cc1 | 241 to 243 |
| COc1ccc2c(c1)c(-c1cc3c(OC)ncnc3[nH]1)cn2C | 184 |
| Nc1sc2c(c1C(=O)c1cccs1)CCN(Cc1ccccc1)C2 | 122 to 123 |
| COC(=O)c1ccc2oc3c(c(=O)c2c1)CCCC3=Cc1ccccc1 | 168 to 170 |
| CN(C)C=C(C#N)C=O | 140 to 141 |
| CCCc1c(C(=O)OCC)sc2[nH]c(=O)c(=O)[nH]c12 | 305 to 307 |
| COc1ccc2c(Br)csc2c1 | 62 |
| O=C1OC2(CCN(C(=O)Nc3cnc(-c4ccc(O)cc4)cn3)CC2)c2ccccc21 | 263 to 265 |
| C[Si](C)(C)C#Cc1ccc2c(c1)C(=O)N(c1ccc3c(c1)C=C3)C2=O | 192 to 193 |
| CNc1ccc2n[nH]c(=O)n2n1 | > 348 |

| SMILES | melting point [°C] |
| --- | --- |
| CCCCCCCC(=O)NCCCCCO | 62 to 63 |
| CC(C)N1CC2(COc3ccccc3OC2)OC1=O | 118 to 120 |
| NCCCn1cc(-c2cc3nccnc3[nH]2)c2ccccc21 | 170 |
| CCOC(=O)C(=NOC)c1noc(C(Cl)(Cl)Cl)n1 | 143 to 146 |
| C(=Cc1ccc(-c2cc3c(ccc4oc5ccccc5c43)o2)cc1)c1ccccc1 | 239 to 241 |
| CCC(=O)N1CCN(c2ccc(NC(=O)c3cc(=O)c4cc(F)cc(N5CCN(C)CC5)c4o3)cc2)CC1 | 244 to 245 |
| CC(=O)NC[C@H]1CN(c2ccc(N3CCS(=O)CC3)cc2)C(=O)O1 | 185 to 186 |
| CCC1(O)OC(=O)c2ccc(Oc3ccc(C(F)(F)F)cc3Cl)cc21 (configuration not stated) | 120 to 122 |
| CCCCCN(Cc1ccc(-c2ccccc2S(=O)(=O)NC(C)(C)C)cc1)C(=O)Cl | 125 to 126 |
| COP(=O)(CC(=O)[C@@H]1COC(C)(C)N1C(=O)OC(C)(C)C)OC | 86 to 87 |
| N#Cc1cccc(/C=C/C2=CCN(Cc3c[nH]c4ncccc34)CC2)c1 | 213 to 215 |
| CC(C)(C)[Si](C)(C)OC1CN(c2ccc(N3C[C@H](CN=[N+]=[N-])OC3=O)cc2F)C1 | 121 to 122 |
| COc1cc(/C=C/C(=O)/C=C/c2cc(OC)c(OCCN=[N+]=[N-])c(OC)c2)cc(OC)c1OCCN=[N+]=[N-] | 107 to 109 |
| CC(C)(C)c1ccc(CCC(CO)CC2CCCCC2)cc1NC(=O)CC1c2ccccc2Oc2ccccc21 (configuration not stated) | 130 to 131 |
| C=CCc1cc(OCCOC)ccc1OCC1(O)CN2CCC1CC2 (configuration not stated) | 58 to 60 |
| NC(=O)c1c(-c2cnccn2)ssc1=S | 267 |
| N#CCC(=NC#N)N1CCCC1 | 45 |
| CN1C(=O)CCC2(C)c3ccc(Sc4cccc5ccccc45)cc3CCC12 (single isomer, unassigned; (+)) | 161 to 162 |
| Cc1ccc2[nH]ncc2c1OCc1ccccc1 | 94 to 95 |
| Cn1c2ccc(-c3nnn[nH]3)cc2c(=O)c2cc(-c3nnn[nH]3)ccc21 | > 400 |
| N#CN1CCC2(CC1)CN(c1ccccc1F)c1ccccc12 | 131 to 132 |
| O=C(N[C@@H](Cc1ccc2ccccc2c1)[C@H](O)CCl)OCc1ccccc1 | 173 to 174 |
